Holding throughout (format): cell-based
In assay [1] the test system is MCF7 (human breast cancer) cell line. Kind of assay: MTT assay for in vitro cytotoxicity, MCF7. As to conditions: for IC50: 24 h incubation with compound, three independent experiments, read-out: IC50 values against MCF7 cancer cell line; for antiproliferative potential for MCF7 cells, in words (relative to cisplatin / within the series): comparison of IC50 values. The method, then: (§1) The anticancer activity of complexes 1-5 was measured using a similar testing protocol reported earlier (M. Altaf et al., New J. Chem. 2015, 39, 377-385, incorporated herein by reference in its entirety) against a panel of representative human tumor cell lines, which included MCF7 (human breast cancer), HCT15 (human colon adenocarcinoma) and A549 (human lung carcinoma) cell lines. The cells were seeded at 3×10^3 cells/well in 100 μL DMEM containing 10% Fetal Bovine Serum (FBS) in 96-well tissue culture plate and incubated for 72 h at 37° C., 5% CO2 in air and 90% relative humidity in CO2 incubator. After incubation, 100 μL of 50, 25 and 12.5 μM solutions of cisplatin and complexes 1-5 prepared in Dulbecco's Modified Eagle's Medium (DMEM), were added to the cells and the cultures were incubated for 24 h. The medium of wells was discarded and 100 μL DMEM containing MTT (0.5 mg/mL) was added to the wells and incubated in CO2 incubator at 37° C. in dark for 4 h. After incubation, a purple colored formazan produced in the cells appeared as dark crystals in the bottom of the wells. The culture medium was discarded from each well carefully to prevent disruption of monolayer and 100 μL of dimethyl sulfoxide (DMSO) was added in each well. The solution in the wells was thoroughly mixed to dissolve the formazan crystals which produce a purple solution. The absorbance of the 96 well-plates was taken at 570 nm with Lab systems Multiskan EX ELISA reader against a reagent blank. The experimental results were presented as micro-mole concentration of 50% cell growth inhibition (IC50) of each compound. The MTT assay was performed in three independent experiments.
(§2) The synthesized gold(I)-phosphine complexes (1 and 2), gold(I)-dithiocarbamates (3-5) and cisplatin (standard classical anticancer drug) were tested for in vitro cytotoxicity against A549, MCF7 and HCT15 human cancer cell lines using MTT assay. The dose-dependent inhibition of cell proliferation was obtained by specific increase in concentration of tested compounds against fixed number of three human cancer cell lines. […] The highest activity of 4 might be attributed to the strong binding of dithiocarbamate sulfur to gold(I) that would prevent it to interact with plasma proteins in tissues, unlike cisplatin which was strongly bound to plasma proteins through sulfur atoms of thiols (S. Ahmad. Chem. Biodiv. 2010, 7, 543-566, incorporated herein by reference in its entirety).
Background: Tetrazolium assays rely on reduction of a dye to a coloured formazan, in cell work by metabolically active cells.

For assay [2], the system named is HCT15 (human colon adenocarcinoma) cell line. Kind of assay: MTT assay for in vitro cytotoxicity, HCT15. The conditions noted are these: for IC50: 24 h incubation with compound, three independent experiments, read-out: IC50 values against HCT15 cancer cell line; for antiproliferative potential for HCT15 cells, in words (relative to cisplatin / within the series): comparison of IC50 values. Here is the method: as §1, §2

In assay [3] the test system is A549 (human lung carcinoma) cell line. The assay is described as follows: MTT assay for in vitro cytotoxicity, A549. The conditions noted are these: for IC50: 24 h incubation with compound, three independent experiments, read-out: IC50 values against A549 cancer cell line; for activity against A549 cells, in words (relative to cisplatin / within the series): comparison of IC50 values. Here is the method:
as §1, §2

Entries after “also recorded” stand apart in the source; their conditions may differ.

Regarding `N.N.[Cl][Pt][Cl]` [cisplatin, reference compound], the IC50 (usually the midpoint of a concentration-inhibition curve) in assay [1] amounted to 23.2 ± 3.79 µM; in assay [2], 32 ± 2.12 µM; in assay [3], 42.2 ± 2.01 µM.

Turning to [Au2(S2CN(C2H5)2)2]n [Complex 4], in assay [1], the half-maximal inhibitory concentration (IC50) turned out to be 48.8 ± 1.96 µM and the “antiproliferative potential for MCF7 cells, in words (relative to cisplatin / within the series)” value was “about half with respect to cisplatin; also recorded: most active among the series”. In addition, in assay [2], the IC50 stood at 38.9 ± 2.38 µM and the “antiproliferative potential for HCT15 cells, in words (relative to cisplatin / within the series)” value was “comparable to cisplatin; also recorded: most active among the series”. For the same molecule, in assay [3], the 50% inhibitory concentration (IC50) stood at 19.6 ± 0.85 µM and the “activity against A549 cells, in words (relative to cisplatin / within the series)” value is given as “most active among the series”.

Consider `NCC[P+]([Au-2][P+](CCN)(c1ccccc1)c1ccccc1)(c1ccccc1)c1ccccc1` [Complex 2, [Au(AEP)2]Cl], for which the “antiproliferative potential for MCF7 cells, in words (relative to cisplatin / within the series)” value in assay [1] is recorded as “about half with respect to cisplatin”. Moreover, the “antiproliferative potential for HCT15 cells, in words (relative to cisplatin / within the series)” value in assay [2] is “comparable to cisplatin”.

As for [Au2(S2CN(CH3)2)2]n [Complex 3], in assay [1], the concentration for half-maximal inhibition (IC50) turned out to be 139 ± 4.51 µM and the “antiproliferative potential for MCF7 cells, in words (relative to cisplatin / within the series)” value is on record as “least effective”. In addition, in assay [2], the IC50 is 257 ± 3.39 µM and the “antiproliferative potential for HCT15 cells, in words (relative to cisplatin / within the series)” value was “least effective”. For the same molecule, in assay [3], the IC50 is 304 ± 5.9 µM and the “activity against A549 cells, in words (relative to cisplatin / within the series)” value is listed as “least effective”.

Take [Au2(S2CN(CH7)2)2]n [Complex 5]: the IC50 stood at 76.3 ± 2.52 µM in assay [1], 69.1 ± 3.35 µM in assay [2] and 29.2 ± 1.81 µM in assay [3].
